Experimental data as given in US11786542B2, “Methods for enhancing cytotoxic cancer therapy through modulation of purine biosynthesis pathways” (NORTHWESTERN UNIVERSITY, priority 2019, dated 2023).
“Also recorded” adds a separate entry of the source.

Legend:
[1] = test system: IMPDH; settings: cited from earlier work
[2] = in vivo; cited from earlier work
[3] = test system: PDX GBM lines; test: Cell viability of PDX GBM lines post therapy, trypan blue exclusion; type: cell-based; settings: CellCept combined with TMZ
Procedure: (§1) FIG. 10A-10C. […] A) Pictorial representation of cell viability post therapy. B) Cell viability measured by trypan blue exclusion method. C) Mice with orthotopic GBM43 treated with vehicle DMSO, TMZ 2.5 mg/kg for 5 days, MMF (20 mg/kg for 4 days and in combination and monitored by endpoint survival.

[4] = test system: orthotopic GBM43; test: Orthotopic PDX GBM mouse model, endpoint survival, IMPDH inhibitor with TMZ; type: in vivo, Mice; settings: for survival benefits in vivo and vitro models: mouse
Procedure: as §1
(§2) Glioblastoma, a universally lethal primary brain tumor, harnesses cellular plasticity to drive therapeutic adaptation. Critical factors in developing this plasticity are histone modifiers such as Polycomb Repressor Complex 2 protein EZH2. […] Concurrently, we observed an increase in H3K27ac at the transcription start site of ARL13B as well as a lack of H3K27 tri-methylation, EZH2's canonical histone mark. Based on this we hypothesize that EZH2 could be non-canonically regulating ARL13B to allow for cellular plasticity and ultimately drive therapeutic adaptation. […] Searching for a mechanism behind this survival benefit, we preformed mass spectrometry on an ARL13B pulldown in a patient derived xenograft line during TMZ therapy and identified inosine monophosphate dehydrogenase 2 (IMPDH2), the rate-limiting enzyme in de-novo guanine nucleotide biosynthesis, as a significant binding partner of ARL13B during TMZ chemotherapy (p-value<0.0001). Probing this novel interaction further we examined the de-novo and salvage purine biosynthesis pathways using radiolabeled carbon tracing experiments. […] This synthesis shift forces cells to uptake and incorporate purines that have been alkylated by TMZ therapy which increases DNA double strand breaks and ultimately impairs therapeutic adaptation.

[5] = test system: EAE and stroke; settings: cited from earlier work
[6] = test system: GBM flank model; test: GBM flank model, tumor growth, EZH2 inhibitor plus TMZ; type: in vivo
Excerpt: FIG. 1A-1D. ARL13B is a downstream target for EZH2 non-canonical function. A) EZH2 expression is elevated during (day 3-D3) and post (D18) TMZ therapy. Therapy resistant glioma stem cell (CD133+) express high EZH2 post therapy (left). […] C) To examine the role of non-canonical function in TMZ resistance GBM43 (proneural) and GBM6 (Classical) PDX GBM treated with TMZ or TMZ+EZH2 inhibitor and subject to RNAseq analysis. […] We identified ARL13B as the top hit from this screen. D) shRNA mediated knockdown of EZH2 leads to downregulation of ARL13B.
2.1. […] One such epigenetic regulator is the Polycomb Repressor Complex 2 (PRC2), a critical family protein that is essential for maintaining the self-renewal ability of adult and embryonic stem cells^22, 23. This complex is involved in transcription silencing via chromatin compaction by catalyzing the methylation of the histone H3 at lysine 27. The catalytic subunit of the PRC2 complex, Enhancer Of Zeste 2 (EZH2), has been linked to aggressive progression of multiple cancers, including GBMs^24 25. The function of EZH2 is closely related to the cancer stem cell (CSC) phenotype, mesenchymal transition and radioresistance, which is associated with post-surgery relapse of GBM^24-26. However, its role in promoting chemoresistance properties in GBM is yet to be investigated. […]

[7] = Blood-brain barrier crossing of the EZH2 inhibitor, orthotopic PDX model; type: in vivo
Excerpt: 2.1. […] One such epigenetic regulator is the Polycomb Repressor Complex 2 (PRC2), a critical family protein that is essential for maintaining the self-renewal ability of adult and embryonic stem cells^22, 23. This complex is involved in transcription silencing via chromatin compaction by catalyzing the methylation of the histone H3 at lysine 27. The catalytic subunit of the PRC2 complex, Enhancer Of Zeste 2 (EZH2), has been linked to aggressive progression of multiple cancers, including GBMs^24 25. The function of EZH2 is closely related to the cancer stem cell (CSC) phenotype, mesenchymal transition and radioresistance, which is associated with post-surgery relapse of GBM^24-26. However, its role in promoting chemoresistance properties in GBM is yet to be investigated. To this end, we have examined the role of the EZH2-PRC2 complex in promoting TMZ resistance.

[8] = test system: ARL13B knockdown PDX GBM (GBM5, GBM6); test: Intracranial ARL13B knockdown PDX xenografts treated with TMZ, endpoint survival; type: in vivo, nu/nu mice; settings: TMZ 2.5 mg/kg for 5 days
Procedure: (§3) FIG. 5A-5D. Removal of ARL13B sensitizes GBM to TMZ therapy. […] B) Quantitative measure of H2X foci of different conditions counted in 100 cells. C) and D) shRNA mediated knockdown of ARL13B PDX lines were implanted in the nu/nu mice intracranially. After tumor establishment (7 days post implantation measured by BLI) animals were treated with suboptimal dose of TMZ (2.5 mg/kg) for 5 consecutive days. Animals were monitored for endpoint survival. C) GBMS PDX which is a mesenchymal subtype and D) GBM6, a classical subtype.
2.6. ARL13B KD enhances the therapeutic efficacy of TMZ both in vitro and in vivo: The monofunctional DNA-alkylating agent TMZ is a commonly used chemotherapeutic drug and the gold standard of treatment for GBM. Although the activity of the DNA repair enzyme O6-methylguanine-DNA methyltransferase (MGMT) has been identified as the critical modulator to determine the GBM sensitivity to TMZ, all GBMs, even those with MGMT inactivation, eventually stop responding to TMZ. This begs question whether an alternative mechanism of resistance may be involved in GBM. The anti-GBM activity of TMZ is predominately provoked by O6-methylguanine-DNA adducts. […] After tumor engraftment animals were treated with vehicle control or TMZ (2.5 mg/kg) for 5 consecutive days and animals were monitored by endpoint survival. […]

[9] = test system: de novo pathway; test: [14C]-glycine isotope tracing, de novo purine biosynthesis; type: cell-based; settings: for de novo pathway activity during TMZ therapy: cells with endogenous ARL13B
Procedure: (§4) FIG. 4A-4E. IMPDH2-ARL13B interaction during TMZ therapy influences purine biosynthesis. A) Schematic diagram of purine biosynthesis. Isotope tracing analysis performed with ^14C glycine for de novo and ^3H hypoxanthine for salvage pathway. […] D)^14C glycine incorporation via de novo synthesis of the DNA and RNA with or without TMZ therapy in the presence and absence of ARL13B. U251 GBM cells were pulsed for 6 h with ^14C glycine, DNA and RNA were isolated, and ^14C incorporation was measured by […]. E) ^3H hypoxanthine incorporation via salvage pathway.
2.5. The ARL13B-IMPDH2 interaction during TMZ therapy alters the path to purine biosynthesis: IMPDH controls the gateway to purine nucleotides, by analyzing the rate-limiting reaction of de novo GTP biosynthesis at the inosine monophosphate (IMP) metabolic branch point^36 (FIG. 4A). This critical reaction appears to be present in every organism. Alternatively, purine bases, released by hydrolytic degradation of nucleic acids and nucleotides, can be salvaged and recycled. This is an energy-saving pathway for purine biosynthesis, and its inefficiency can result in many pathological conditions including Lesch-Nyhan syndrome^37. In cancer, rapid cell division results in a high demand for purine nucleotides that generally cannot be sustained by salvage pathways, which may explain the importance of IMPDH in cancer^14, 38. This information, combined with our finding of a direct interaction between ARL13B and IMPDH2 during TMZ therapy, allows us to postulate that such an interaction may be playing a role in regulation of purine biosynthesis pathway. To investigate further, we first performed [^14C]-glycine (de novo) and [^3H]-hypoxanthine (salvage) pulse-chase study during therapy, which allowed us to measure the activity of specific purine biosynthesis pathways^39 (FIG. 4A). […] Moreover, removal or ARL13B enhanced the salvage activity about 5-fold (FIG. 4E, p<0.0005). Based on this, we conclude that ARL13B may act as a negative regulator for the salvage pathway and is play a role in therapy-induced switch of the purine biosynthesis.

[10] = test system: Glioblastoma (GBM); settings: combined with radiotherapy after surgery; cited from earlier work
[11] = test system: IMPDH2; test: IMPDH2 enzymatic activity, formazin reduction assay; type: biochemical; settings: over 8 days of TMZ exposure (p<0.001)
Excerpt: as §2

[12] = patients; cited from earlier work
[13] = test system: ARL13B knocked out GBM lines; test: DNA damage by H2X foci in ARL13B knockout/knockdown GBM cells treated with TMZ; type: cell-based; settings: ARL13B knockout/knockdown cells vs control cells, both exposed to TMZ
Procedure: as §3
Creation of this alkylated purine causes a base pair mismatch in DNA (G-T) which results in DNA damage and cell cycle arrest and apoptosis (PMID: 15322239). Because of the nature of temozolomide chemotherapy-induced DNA damage, we chose to examine whether or not salvage pathway synthesis carried an implicit sensitivity to this alkylating chemotherapy. […] However, it did decrease the utilization of the salvage pathway by roughly 50%. Next, we subjected our ARL13B knockout cells to a standard dose of Temozolomide chemotherapy and checked whether they had more DNA double-stranded breaks by utilizing gamma h2ax foci counting. […]
2.6. […] After tumor engraftment animals were treated with vehicle control or TMZ (2.5 mg/kg) for 5 consecutive days and animals were monitored by endpoint survival. […]

[14] = test system: salvage pathway; test: [3H]-hypoxanthine isotope tracing, salvage purine biosynthesis; type: cell-based; settings: cells with endogenous ARL13B; listed as temozolomide
Procedure: as §4
2.5. The ARL13B-IMPDH2 interaction during TMZ therapy alters the path to purine biosynthesis: IMPDH controls the gateway to purine nucleotides, by analyzing the rate-limiting reaction of de novo GTP biosynthesis at the inosine monophosphate (IMP) metabolic branch point^36 (FIG. 4A). This critical reaction appears to be present in every organism. Alternatively, purine bases, released by hydrolytic degradation of nucleic acids and nucleotides, can be salvaged and recycled. This is an energy-saving pathway for purine biosynthesis, and its inefficiency can result in many pathological conditions including Lesch-Nyhan syndrome^37. In cancer, rapid cell division results in a high demand for purine nucleotides that generally cannot be sustained by salvage pathways, which may explain the importance of IMPDH in cancer^14, 38. […]

CC[C@H](CC#N)OC(=O)N[C@@H](C)c1cccc(NC(=O)Nc2ccc(-c3cnco3)c(OC)c2)c1 [AVN944]
IMPDH activity as compared to CellCept [1]: enhanced IMPDH activity as compared to CellCept

COc1c(C)c2c(c(O)c1C/C=C(\C)CCC(=O)OCCN1CCOCC1)C(=O)OC2 [CellCept, mycophenolic mofetil]
crossing of the blood-brain barrier (BBB) [2]: ability to cross the blood-brain barrier
sensitization to TMZ therapy in vitro [3]: sensitizes PDX GBM lines to TMZ therapy; also recorded: significantly improved the therapeutic efficacy of TMZ-based anti-GBM chemotherapy
therapeutic efficacy of TMZ-based chemotherapy, animal model ([4]; CellCept combined with TMZ, PDX model (FIG. 10)): corporation between CellCept and TMZ; also recorded: significantly improved the therapeutic efficacy of TMZ-based anti-GBM chemotherapy
survival benefits in vivo and vitro models [4]: robust survival benefits
median survival ([4]; orthotopic PDX mouse model, only when in combination with TMZ (p<0.01)): significantly extended median survival
neuroprotection against inflammatory conditions [5]: promoted neuroprotection

CCCc1cc(C)[nH]c(=O)c1CNC(=O)c1cc(-c2ccc(N3CCN(C(C)C)CC3)nc2)cc2c1cnn2C(C)C [EZH2 inhibitor]
tumor growth / therapeutic efficacy of TMZ in flank model [6]: can block the tumor growth; also recorded: significantly enhanced the therapeutic efficacy of TMZ
crossing of the blood-brain barrier [7]: failed to cross the blood-brain barrier

NC(=O)c1ncn([C@@H]2O[C@H](CO)[C@@H](O)[C@H]2O)c1O [Mizoribine, mizoribine]
survival benefits in vivo and vitro models [4]: robust survival benefits

Cn1nnc2c(C(N)=O)ncn2c1=O [TMZ, 3,4-dihydro-3methyl-4-oxoimidazo[5,1-d]-1,2,3,5-tetrazine-8-carboxamide]
improvement in overall survival compared to control ([8]; classical subtype GBM6, ARL13B KD): 39%
animals that did not develop any tumor ([8]; mesenchymal subtype, ARL13B KO GBM): 80%
decrease of de novo pathway usage in a TMZ specific manner ([9]; ARL13B knockdown / removal): about 50%
de novo pathway activity in a TMZ-specific manner ([9]; ARL13B knocked-out cells): inhibited in a TMZ-specific manner; also recorded: reduced significantly in a TMZ-specific manner
de novo pathway activity during TMZ therapy [9]: remained unchanged; also recorded: did not alter the de novo synthesis pathway
de novo pathway activity during TMZ therapy ([9]; listed as temozolomide): did not statistically change
improvement of overall survival time [10]: 4-6 months
IMPDH2 enzymatic activity [11]: decrease in activity
peak cerebral spinal fluid and serum concentrations [12]: 50 µM
DNA damage / double-strand breaks (H2X foci) [13]: robust increase in DNA double-strand breaks; also recorded: significantly elevated DNA damage
DNA damage / double-strand breaks (H2X foci) ([13]; listed as Temozolomide): significantly more foci
decrease of salvage pathway activity during TMZ therapy [14]: roughly 50%
